Laboratory results taken from PubChem BioAssay AID1963849 (Molecular Pharmacology Branch, DTP, NCI, 2024).

Tested on: 299254-011-R-J1-PDC complex spheroid viability
Assay: Anticancer human tumor 299254-011-R-J1-PDC patient-derived melanoma cell line growth inhibition [POLQ]
Settings: for IC50: curve of first compound; for viability, T/C: stronger effect = lower value
Method in brief: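 Complex spheroid viability model combining PDC tumour cells with endothelial (HUVEC) and MSC stromal cells. Novobiocin, ART-558 or RP6685 were tested singly and in combination with standard and investigational anticancer drugs. Each was titrated in half-log steps from near clinical Cmax, or from 10 microM where Cmax was unknown.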

[1] = second compound 0.0316 µM, first compound 0.0316 µM
[2] = second compound 0.0316 µM, first compound 0.1 µM
[3] = second compound 0.0316 µM, first compound 0.316 µM
[4] = second compound 0.0316 µM, first compound 1 µM
[5] = second compound 0.0316 µM, first compound 3.16 µM
[6] = second compound 0.0316 µM, first compound 10 µM
[7] = second compound 0.1 µM, first compound 0.0316 µM
[8] = second compound 0.1 µM, first compound 0.1 µM
[9] = second compound 0.1 µM, first compound 0.316 µM
[10] = second compound 0.1 µM, first compound 1 µM
[11] = second compound 0.1 µM, first compound 3.16 µM
[12] = second compound 0.1 µM, first compound 10 µM
[13] = second compound 0.316 µM, first compound 0.0316 µM
[14] = second compound 0.316 µM, first compound 0.1 µM
[15] = second compound 0.316 µM, first compound 0.316 µM
[16] = second compound 0.316 µM, first compound 1 µM
[17] = second compound 0.316 µM, first compound 3.16 µM
[18] = second compound 0.316 µM, first compound 10 µM
[19] = second compound 1 µM, first compound 0.0316 µM
[20] = second compound 1 µM, first compound 0.1 µM
[21] = second compound 1 µM, first compound 0.316 µM
[22] = second compound 1 µM, first compound 1 µM
[23] = second compound 1 µM, first compound 3.16 µM
[24] = second compound 1 µM, first compound 10 µM
[25] = second compound 3.16 µM, first compound 0.0316 µM
[26] = second compound 3.16 µM, first compound 0.1 µM
[27] = second compound 3.16 µM, first compound 0.316 µM
[28] = second compound 3.16 µM, first compound 1 µM
[29] = second compound 3.16 µM, first compound 3.16 µM
[30] = second compound 3.16 µM, first compound 10 µM
[31] = second compound 10 µM, first compound 0.0316 µM
[32] = second compound 10 µM, first compound 0.1 µM
[33] = second compound 10 µM, first compound 0.316 µM
[34] = second compound 10 µM, first compound 1 µM
[35] = second compound 10 µM, first compound 3.16 µM
[36] = second compound 10 µM, first compound 10 µM
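Also: spheroids exposed to drugs for one week before measurement.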
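For viability, T/C in this document: percent viability relative to DMSO vehicle control taken as 100%.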

Question: Which results are given for CC1COCCN1c1cc(C2(O)CC3CCC(C2)O3)c2cnn(-c3ccn[nH]3)c2n1 (centres undefined) + COC1C(OC(N)=O)C(O)C(Oc2ccc3c(O)c(NC(=O)c4ccc(O)c(CC=C(C)C)c4)c(=O)oc3c2C)OC1(C)C?
Answer: IC50 (second compound 0.0316 µM): 136 nM; IC50 (second compound 0.1 µM): 182 nM; IC50 (second compound 0.316 µM): 206 nM; IC50 (second compound 1 µM): 163 nM; IC50 (second compound 3.16 µM): 159 nM; IC50 (second compound 10 µM): 176 nM; viability, T/C [1]: 102%; viability, T/C [2]: 53.5%; viability, T/C [3]: 35.8%; viability, T/C [4]: 20.7%; viability, T/C [5]: 14.8%; viability, T/C [6]: 11.1%; viability, T/C [7]: 86.4%; viability, T/C [8]: 64.8%; viability, T/C [9]: 36.6%; viability, T/C [10]: 18.9%; viability, T/C [11]: 16.8%; viability, T/C [12]: 11.5%; viability, T/C [13]: 88.9%; viability, T/C [14]: 75.6%; viability, T/C [15]: 34%; viability, T/C [16]: 20.4%; viability, T/C [17]: 14%; viability, T/C [18]: 11.6%; viability, T/C [19]: 109%; viability, T/C [20]: 56.5%; viability, T/C [21]: 37.4%; viability, T/C [22]: 27.1%; viability, T/C [23]: 15.6%; viability, T/C [24]: 10.2%; viability, T/C [25]: 91.5%; viability, T/C [26]: 61.1%; viability, T/C [27]: 33.1%; viability, T/C [28]: 20.4%; viability, T/C [29]: 13%; viability, T/C [30]: 11.1%; viability, T/C [31]: 87.6%; viability, T/C [32]: 60.5%; viability, T/C [33]: 40.7%; viability, T/C [34]: 17.9%; viability, T/C [35]: 16.6%; viability, T/C [36]: 10.2%

Question: What does the source list for O=C(Nc1ccc(O)c(NS(=O)(=O)c2ccc(F)cc2)c1)c1ccc(-c2ccccc2)cc1 + COC1C(OC(N)=O)C(O)C(Oc2ccc3c(O)c(NC(=O)c4ccc(O)c(CC=C(C)C)c4)c(=O)oc3c2C)OC1(C)C?
Answer: IC50 (second compound 0.0316 µM): 9100 nM; IC50 (second compound 0.1 µM): > 10000 nM; IC50 (second compound 0.316 µM): 8620 nM; IC50 (second compound 1 µM): > 10000 nM; IC50 (second compound 3.16 µM): > 10000 nM; IC50 (second compound 10 µM): > 10000 nM; viability, T/C [1]: 105%; viability, T/C [2]: 96.9%; viability, T/C [3]: 94.2%; viability, T/C [4]: 109%; viability, T/C [5]: 112%; viability, T/C [6]: 45.3%; viability, T/C [7]: 95.6%; viability, T/C [8]: 114%; viability, T/C [9]: 105%; viability, T/C [10]: 94.6%; viability, T/C [11]: 86.3%; viability, T/C [12]: 57.1%; viability, T/C [13]: 127%; viability, T/C [14]: 101%; viability, T/C [15]: 104%; viability, T/C [16]: 95.7%; viability, T/C [17]: 97.7%; viability, T/C [18]: 42.6%; viability, T/C [19]: 110%; viability, T/C [20]: 104%; viability, T/C [21]: 108%; viability, T/C [22]: 118%; viability, T/C [23]: 93.3%; viability, T/C [24]: 54.7%; viability, T/C [25]: 109%; viability, T/C [26]: 114%; viability, T/C [27]: 109%; viability, T/C [28]: 94.6%; viability, T/C [29]: 99.4%; viability, T/C [30]: 55.9%; viability, T/C [31]: 96.2%; viability, T/C [32]: 127%; viability, T/C [33]: 106%; viability, T/C [34]: 103%; viability, T/C [35]: 96.5%; viability, T/C [36]: 58.4%
